# Laboratory results reported in US11806351B2, “Use of coenzyme factor for activation of ATP production in cell” (TERA STONE Co., Ltd, priority 2018, dated 2023).
# pKd: −log10 of the molar value. Read-outs that look alike come from different tables or passages of the source.
# What was measured:
# [1] = test system: hippocampal neurons; assay: number of branches of hippocampal neuron dendrite, Specimens 5 to 11; assay type: cell-based, ICR mouse; details: 0.3 μM added once on culture day 1; MAP2 antibody culture day 4
# Protocol: Hippocampal neurons were collected from the juvenile (Day 0 after birth) ICR mouse brain and cultured on a culture dish.
# Each specimen was added once to the cells in the initial growth stage (on culture day 1); the resulting cells were immunostained with a MAP2 antibody three days later (on culture day 4), and the number of branches of the dendrite was quantified.
# The measurement was performed by drawing 20 μm to 100 μm concentric circles (not shown) at an interval of 10 μm with a soma as a center and counting the number of dendrites crossing the circles.
# A line graph of the number of dendrite crossings counted for each distance from the soma was drawn and a Student's t-test, paired (t-test, two tailed distribution) was carried out using an area under the line graph (Area under the Curve: AUC).
# When the number of cases of a specimen was sufficient, the test was performed while eliminating the maximum and minimum values. The concentrations of the specimens to be added were each 0.3 μM.
# [2] = test system: human glioma U251 cells (Sig1-R transfected cells); assay: intracellular ATP concentration in human glioma U251 cells; assay type: cell-based
# Protocol: To cultured human glioma US251 cells (Sig1-R transfected cells) were added Specimens 1 and 2, respectively and intercomparison was performed between intracellular ATP concentration after addition and that without addition (Cont.). […] It is to be noted that fluorescence measurement was performed 6 hours after the administration of the specimens.
# [3] = lipophilicity, hydrophobicity and stability; assay type: physicochemical
# [4] = test system: mitochondrial calcium concentration; assay: mitochondrial calcium concentration in brain slice preparations exposed to 80K ACSF, 24 h after subcutaneous administration; assay type: in vivo, mouse (C57B/6NL)
# Protocol: (§1) Formation of brain slice preparation and measurement of calcium concentration: Used was a whole brain half-cut preparation obtained by cutting a whole brain slice (300 μm) of a mouse (C57B/6NL), pretreated with Specimen 1 for 24 hours by subcutaneous administration, at a median line. […] The resulting preparation was placed in a chamber provided on a stage of an inverted fluorescence microscope (Olympus IX71), covered with a piece of black cotton, fixed with a platinum ring, and refluxed (70 ml/hr) in ACSF aerated with 95% O2 and 5% CO2. A fluorescent image of the preparation was acquired using a 4× objective lens and respective images of the hippocampal ventral part and cerebral cortex temporal region were obtained in one screen. For the measurement of a mitochondrial calcium concentration, a change in intensity of red fluorescence (>600 nm) caused by excitation light at 580 nm was determined and for the measurement of a cytoplasmic calcium concentration, a ratio of fluorescence (>500 nm) between excitation at 360 nm and that at 380 nm was determined. A hippocampal CA1 site and a cerebral cortex were used as two regions of interest (ROI).
# (§2) In water was dissolved β-NMN to give a 10 mg/kg, 30 mg/kg, or 100 mg/kg solution; Specimen 1 was dissolved in an alcohol to give a solution of 1 mg/ml and then the resulting solution was diluted with water to give a 0.01 mg/kg, 0.1 mg/kg or 1.0 mg/kg solution; and they were subcutaneously administered to mice 24 hours before the formation of the preparation (0.1 ml/10 g).
# (§3) In the present test, an operation of exposing the brain preparations formed from mice administered with two drugs having respective concentrations to isotonic 80 mM KCl-ACSF (artificial cerebrospinal fluid) for 5 minutes and then returning them in normal ACSF for 5 minutes was performed three successive times to give a severe calcium load to the preparations. Variations in cytoplasmic and mitochondrial calcium concentrations at that time were measured.
# FIG. 31A to FIG. 32C show the quantification results of the effects of β-NMN and Specimen 1 (TND1128) at each concentration. In FIG. 31A to FIG. 32C, FIG. 31A and FIG. 32A show the results of calculating a mitochondrial calcium concentration, as AUC (Area under the curve), for 35 minutes from 5 minutes after starting of the experiment by administration to three times exposure to 80K-ACSF and 5-minute washing (refer to FIG. 37). FIG. 31B. FIG. 31C, FIG. 32B and FIG. 32C show the drug effects on 5-minute 80K administration and 5-minute subsequent washing (1st: from 5 minutes to 15 minutes, 2nd: from 15 minutes to 25 minutes, and 3rd: from 25 minutes to 35 minutes) in the cerebral cortex (CTX) and the hippocampus (CA1), respectively (refer to FIG. 37). A significant difference test was performed using Tukey's method.
# [5] = test system: cytoplasmic calcium concentration; assay: cytoplasmic calcium concentration in brain slice preparations exposed to 80K ACSF, 24 h after subcutaneous administration; assay type: in vivo, mouse (C57B/6NL)
# Protocol: as §1, §2, §3
# [6] = cited from earlier work
# [7] = test system: mitochondrial Ca^2+ concentration in cerebral cortex and hippocampal neurons; assay: K+ depolarization-induced mitochondrial Ca2+ increase in brain slices after intraperitoneal administration; assay type: in vivo, C57BL/6N mice
# Protocol: One of adult C57BL/6N mice (from 10 to 17 weeks old, weight: from 28 to 31 g) was intraperitoneally administered with physiological saline (Control) and the other one with Specimen 3 (10 μg/kg). After 22 hours, a thin brain slice preparation of each mouse including the cortex and the hippocampus was made. Depolarization of a cellular membrane was caused by the addition of 80 mM KCl (80K) to an extracellular fluid and an increase in mitochondrial Ca^2+ concentration resulting therefrom was measured by a fluorescent method with Rhod-2 (Note 1). Positive participation of Specimen 3 to the ATP activity in mitochondria was indirectly verified (Note 3) by using, as an index, how the Ca^2+ concentration to be increased by 80K (Note 2) is suppressed by Specimen 3 in the brain slice.
# (Note 1) Rhod-2: Ca^2+ fluorescent dye selectively incorporated in mitochondria
# (Note 2) The depolarization of the neuronal membrane by 80K occurs due to both the flow of Ca^2+ from the outside to the inside of the cell and the release of Ca^2+ from an intracellular Ca store. The free Ca^2+ which has increased in the cell easily enters the mitochondria, an intracellular independent organ.
# (Note 3) The free Ca^2+ which has increased in the neuronal cytoplasm due to 80K stimulation-induced depolarization speedily and immediately transmits into the mitochondria from the cytoplasm. A decrease in the mitochondrial free Ca^2+ concentration caused by the specimen occurs because the free Ca^2+ is scooped out of the cell by an outward Ca pump present in the neuron cytoplasm membrane or adsorption and fixing to a portion inside the mitochondria. Energy for it is supplied from ATP produced in the mitochondria. Based on the results thus obtained, intraperitoneally injected Specimen 3 passes from the blood to glia (astrocyte) cells and is then, incorporated in the mitochondria in the cerebral cortex or hippocampal neuron, by which ATP production in the mitochondria is activated and neurons are activated. […]
# Fluorescence measurement results of a mitochondrial Ca^2+ increase are plotted along the ordinate.
# [8] = as printed in the method, b201, read-out: Kd
smiles,measurement,setting,value
Cn1c2nc(=O)n(C)c(=O)c-2cc2c1C=C1CCC3C(CCC4(C)C(O)CCC34)C1(C)C2 (centres unmarked) [Specimen 7],"number of branches of hippocampal neuron dendrite (AUC of dendrite crossings, t-test vs control)",[1],a statistically significant difference is recognized (p<0.05)
CCCCn1c2nc(=O)n(C)c(=O)c-2cc2ccccc21 [Specimen 2],effectiveness on ATP production compared between specimens,[2]; 6 hours after administration,more effective than Specimen 1
same,ATP production amount (intracellular ATP concentration vs without addition),[2]; fluorescence measurement 6 hours after administration,significantly increased the ATP production amount
same,lipophilicity compared with Specimen 1,[3],higher lipophilicity
"NC(=O)c1ccc[n+]([C@@H]2O[C@H](COP(=O)([O-])O)[C@@H](O)[C@H]2O)c1 [β-NMN, Nicotinamide mononucleotide, reference compound]",physiological response of the preparations under 80K-ACSF stimulation (mitochondrial and cytoplasmic Ca2+ variations),"[4]; 100 mg/kg β-NMN, 1 mg/kg Specimen 1",the preparations can maintain a markedly stable physiological response
same,mitochondrial protective function / function stabilizing effect,[4]; 24 hours after administration,induces significant mitochondrial protective function
same,"mitochondrial calcium concentration as AUC, cerebral cortex (CTX) and hippocampus (CA1)","[4]; s.c. 24 h pretreatment, within the dose range studied, Tukey's method",a dose response relationship
same,mitochondrial Ca2+ increase on three times 80K ACSF exposure (time course),"[4]; s.c. 24 h pretreatment, β-NMN 10, 30, 100 mg/kg, Specimen 1 0.01, 0.1, 1.0 mg/kg",dose-dependently suppress a mitochondrial Ca^2+ increase
same,effect on drastic increase in cytoplasmic Ca2+ concentration caused by 80K-ACSF,[5]; s.c. 24 h pretreatment,no significant effect
same,"quantified cytoplasmic Ca2+ (AUC), significant difference","[5]; s.c. 24 h pretreatment, all doses",a significant difference was not observed at concentrations other than that of the group administered with 10 mg/kg of β-NMN
same,recovery of cytoplasmic calcium concentration variations at each 80K-ACSF administration,"[5]; β-NMN 30 or 100 mg/kg, Specimen 1 0.01 to 1.0 mg/kg, s.c. 24 h",show similar recovery
CCn1c2nc(=O)n(C)c(=O)c-2cc2c(=O)n(C)c(=O)[nH]c21 [Specimen 5],"number of branches of hippocampal neuron dendrite (AUC of dendrite crossings, t-test vs control)",[1],an effect on dendrite elongation is recognized
CC(C)CCCC(C)C1CCC2C3CCC4=Cc5c(cc6c(=O)n(C)c(=O)nc-6n5C)CC4(C)C3CCC12C (centres unmarked) [Specimen 9],"number of branches of hippocampal neuron dendrite (AUC of dendrite crossings, t-test vs control)",[1],an effect on dendrite elongation is recognized
O=c1nc2n(-c3ccc(Cl)cc3)c3[nH]c(=O)n(-c4ccccc4)c(=O)c3cc-2c(=O)n1-c1ccccc1 [Specimen 6],"number of branches of hippocampal neuron dendrite (AUC of dendrite crossings, t-test vs control)",[1],an effect on dendrite elongation is recognized
C[C@]12CC[C@H]3[C@@H](CCC4=Cc5c(cc6c(=O)n(-c7ccccc7)c(=O)nc-6n5-c5ccccc5)C[C@@]43C)[C@@H]1CC[C@@H]2O,melting point,,257 °C
Cc1ccc(-n2c3nc(=O)n(C)c(=O)c-3cc3c2C=C2CCC4C(CCC5(C)C(C(C)CCCC(C)C)CCC45)C2(C)C3)cc1C (centres unmarked) [Specimen 10],"number of branches of hippocampal neuron dendrite (AUC of dendrite crossings, t-test vs control)",[1],an effect on dendrite elongation is recognized
CCn1c2nc(=O)n(C)c(=O)c-2cc2c1C=C1CC[C@H]3[C@@H]4CC[C@H](O)[C@@]4(C)CC[C@@H]3[C@@]1(C)C2,melting point,,260 °C (dec.)
CC(=O)OCOC(=O)CN(CC(=O)OCOC(C)=O)c1cc(F)ccc1OCCOc1cc2cc(-c3ncc(C(=O)OCOC(C)=O)o3)oc2cc1N(CC(=O)OCOC(C)=O)CC(=O)OCOC(C)=O [fura-4F/AM],pKd,[6]; [8],3.11
same,pKd,[6]; read-out: Ca2+ chelating ability (Kd),6.11
Cn1c(=O)nc2n(-c3ccccc3)c3c(cc-2c1=O)C[C@@]1(C)C(=C3)CC[C@H]2[C@@H]3CC[C@H](O)[C@@]3(C)CC[C@@H]21,melting point,,215 °C (dec.)
C[C@]12CC[C@H]3[C@@H](CCC4=Cc5c(cc6c(=O)n(-c7ccccc7)c(=O)nc-6n5Cc5ccccc5)C[C@@]43C)[C@@H]1CC[C@@H]2O,melting point,,224 °C
CCCCn1c2nc(=O)n(-c3ccccc3)c(=O)c-2cc2c1C=C1CC[C@H]3[C@@H]4CC[C@H](O)[C@@]4(C)CC[C@@H]3[C@@]1(C)C2,melting point,,200 °C
CC(=O)OCOC(=O)CN(CC(=O)OCOC(C)=O)c1ccc(C)cc1OCCOc1cc(C2=c3cc4c5c(c3Oc3c2cc2c6c3CCCN6CCC2)CCC[N+]=5CCC4)ccc1N(CC(=O)OCOC(C)=O)CC(=O)OCOC(C)=O [Xrhod-1/AM],pKd,[6]; [8],3.15
"CCCCn1c2nc(=O)n(C)c(=O)c-2cc2c1C=C1CCC3C(CCC4(C)C(O)CCC34)C1(C)C2 (stereo not drawn) [Specimen 3, 8′-n-Butyl-5′-deaza-17β-hydroxy-3′-methylandrost-2,4-dieno[2,3-g]pteridine-2′,4′(3′H,8′H)-dione]","decrease of 80K depolarization-induced increase in mitochondrial Ca2+ concentration, cortex and hippocampal neurons",[7]; 10 μg/kg i.p. pretreatment in vivo,markedly and at the maximum
same,"variations of mitochondrial Ca2+ concentration on 80K extracellular fluid, cerebral cortex neurons","[7]; 10 μg/kg i.p., slice made 22 hours after injection",suppression of the Ca^2+ concentration increase and a faster recovery from the Ca^2+ concentration increased by 80K depolarization can be observed
same,"dose at which the maximum inhibitory effect on mitochondrial Ca2+ concentration increase is attained, hippocampal neurons","[7]; i.p., 10 μg/kg and 10 mg/kg compared, n=3 slices",0.01 mg/kg
Cc1ccc(-n2c3nc(=O)n(-c4ccccc4)c(=O)c-3cc3c2C=C2CCC4C(CCC5(C)C(C(C)CCCC(C)C)CCC45)C2(C)C3)cc1C (centres unmarked) [Specimen 11],"number of branches of hippocampal neuron dendrite (AUC of dendrite crossings, t-test vs control)",[1],a statistically significant difference is recognized (p<0.05)
"CCn1c2nc(=O)n(-c3ccccc3)c(=O)c-2cc2c1C=C1CCC3C(CCC4(C)C(O)CCC34)C1(C)C2 (stereo not drawn) [Specimen 8, 5′-Deaza-8′-ethyl-17β-hydroxy-3′-phenylandrost-2,4-dieno[2,3-g]pteridine-2′,4′(3′H, 8′H)-dione]","number of branches of hippocampal neuron dendrite (AUC of dendrite crossings, t-test vs control)",[1],an effect on dendrite elongation is recognized
Cn1c(=O)nc2n(Cc3ccccc3)c3c(cc-2c1=O)C[C@@]1(C)C(=C3)CC[C@H]2[C@@H]3CC[C@H](O)[C@@]3(C)CC[C@@H]21,melting point,,215 °C
